The values below come from US20230087118A1, “IMIDAZO[1,2-a][sequence] DERIVATIVES AND THEIR USE IN THE TREATMENT OF DISEASE” (priority 2019, published 2023).

For test [1], the target named is T1, IRAK4 (Homo sapiens, UniProt Q9NWZ3).
T1 sequence (Q9NWZ3 1-460): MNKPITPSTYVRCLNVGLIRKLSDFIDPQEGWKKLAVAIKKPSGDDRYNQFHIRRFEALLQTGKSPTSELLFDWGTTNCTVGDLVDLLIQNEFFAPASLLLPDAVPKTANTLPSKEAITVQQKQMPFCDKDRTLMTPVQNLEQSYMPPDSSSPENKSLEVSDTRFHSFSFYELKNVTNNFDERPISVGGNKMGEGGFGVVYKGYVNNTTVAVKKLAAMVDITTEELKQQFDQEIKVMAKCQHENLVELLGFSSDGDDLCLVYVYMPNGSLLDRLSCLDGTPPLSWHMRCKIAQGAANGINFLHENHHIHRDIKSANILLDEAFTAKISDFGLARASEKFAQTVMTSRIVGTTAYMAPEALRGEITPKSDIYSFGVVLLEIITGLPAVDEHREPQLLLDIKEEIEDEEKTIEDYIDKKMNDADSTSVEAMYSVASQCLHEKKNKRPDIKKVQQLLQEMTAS
Description: 2-hour 10 μM ATP Biochemical Assay (MesoScale Detection format; IRAK4 phosphorylation of biotin labeled IRAK1 activation loop peptide). To be noted: 0.1 nM IRAK4. Here is the method: Compounds of the invention were assessed for their ability to inhibit IRAK4 activity. The inhibitory properties of the compounds of the invention described herein can be evidenced by testing in any one of the following assays.
The 2-hour 10 μM ATP Biochemical Assay employs a MesoScale Detection (MSD) format. The kinase reaction is based on the IRAK4 phosphorylation of a biotin labeled peptide (IRAK1 activation loop sequence 360-389).
The kinase reaction in 30 μl is carried out in wells of a 384 well polypropylene assay plate, with 0.1 nM IRAK4, 1.6 μM of biotinylated peptide substrate and 10 μM ATP in 50 mM Hepes, pH 7.5, 60 mM NaCl, 5 mM MgCl2, 0.25 mM MnCl2, 2 mM DTT, 0.01% BSA, and 1% DMSO (from compound DMSO stocks), for 2 hour at room temperature. The activity is quenched with 11 μl of 70 mM EDTA, pH 8.
To detect the phosphorylated biotinylated peptide substrate, 30 μl of the quenched reaction mixture is added to equivalent wells of a 384 well streptavidin coated MesoScale plate (Meso Scale Discovery #L21SA-1). After a 1 hour incubation of the plate for 1 hour at room temperature with gentle mixing, the plate wells are washed 3 times with 50 mM Tris, pH 7.5, 150 mM NaCl, 0.02% Tween-20.
A 25 μl volume of 1:500 anti-P-Threonine Rabbit polyclonal Antibody plus 1:500 Goat-anti-Rabbit Sulfo Tag Antibody (Meso Scale Discovery R32AB-1) in 50 mM Tris, pH 7.5, 150 mM NaCl, 0.02% Tween-20 plus 2% BSA is then added to each well. After a 1-hour incubation of the plate for 1 hour at room temperature with gentle mixing, the plate wells are washed, 3 times with 50 mM Tris, pH 7.5, 150 mM NaCl, 0.02% Tween-20. A 40 μl volume of 2× MSD Read Buffer (Meso Scale Discovery R92TC-1) is added to each well, and the plate is read immediately in an MSD Plate Reader (Meso Scale Discovery).

The target in test [2] is T1, IRAK4. Description: biochemical.
Where [3] appears, read: IRAK4 Biochemical Assay (1 mM ATP, 2 h) IC50 (μM), 1 mM ATP, 2 h, 100 pM IRAK4.

Usually IC50 stands for the midpoint of a concentration-inhibition curve. A low value points to inhibition by little substance. Consider `COc1cc2nc(C34CC(C#N)(C3)C4)cn2cc1C(=O)Nc1cccc(C(F)(F)F)n1` [Example 37], for which the IC50 in test [1] stood at 9 nM; in test [2] (setting [3]), 0.0253 µM.
In the case of `COc1cc2nc(C3CCOCC3)cn2cc1C(=O)Nc1cccc(Cl)c1OC` [Example 170], the IC50 in test [1] came out at 2 nM; in test [2], 0.0053 µM.
For `COc1cc2nc(C3CCOCC3)cn2cc1C(=O)Nc1cccc(Cl)c1` [Example 144], the values for the IC50 in test [1] and in test [2] were 7 nM and 0.0251 µM, respectively.
Consider `COc1cc2nc(C3C4COCC43)cn2cc1C(=O)Nc1cccc(C(F)(F)F)n1` (stereo not shown) [Example 32], for which the IC50 in test [1] came to 8 nM; in test [2] it was 0.013 µM.
`COc1cc2nc(C3CCOCC3)cn2cc1C(=O)Nc1cccc(C(F)F)c1` [Example 125]: the IC50 in test [1] turned out to be 4 nM; in test [2], 0.0129 µM.
As for `COc1cc2nc(C3CCOCC3)cn2cc1C(=O)Nc1cccc(C(F)(F)CF)c1` [Example 122], the IC50 came to 15 nM in test [1] and 0.0579 µM in test [2].
As to `COc1cc2nc(C3CCC(OC)C3)cn2cc1C(=O)Nc1cccc(C(F)(F)F)n1` (stereo not shown) [Example 41], the IC50 in test [1] stood at 5 nM; in test [2] (setting [3]), 0.0157 µM.
As for `COc1cc2nc(C3CCOCC3)cn2cc1C(=O)Nc1ccn(C(F)F)n1` [Example 48], the half-inhibitory concentration (IC50) amounted to 13 nM in test [1] and 0.04 µM in test [2] (setting [3]).
Turning to `COc1cccc(NC(=O)c2cn3cc(C4C5COCC54)nc3cc2OC)n1` (stereo not shown) [Example 22], the IC50 in test [1] is 5 nM; in test [2], 0.018 µM.
With `COc1cc2nc(CC3CCOC3)cn2cc1C(=O)Nc1cccc(C(F)(F)F)n1` (stereo not shown) [Example 33], the figures for the IC50 in test [1] and in test [2] were 5 nM and 0.014 µM, respectively.
Turning to `COc1cc2nc(C3CCOC(C)(C)C3)cn2cc1C(=O)Nc1cccc(C(F)(F)F)n1` (stereo not shown) [Example 43], the IC50 was determined as 2 nM in test [1] and 0.0032 µM in test [2] (setting [3]).
Consider `COc1cccc(NC(=O)c2cn3cc(CC4CCOCC4)nc3cc2OC)n1` [Example 10], for which the figures for the IC50 in test [1] and in test [2] (setting [3]) were 8 nM and 0.0293 µM, respectively.
Consider `COc1cc2nc(C3CCOCC3)cn2cc1C(=O)Nc1ccccc1F` [Example 147], for which the IC50 in test [1] is 10 nM; in test [2] it was 0.0417 µM.
As for `COc1cc2nc(C3CCOCC3)cn2cc1C(=O)Nc1cccc(C)c1` [Example 143], the concentration for half-maximal inhibition (IC50) in test [1] turned out to be 10 nM; in test [2] it was 0.0354 µM.
Regarding `COc1cc2nc(C3CC4CCC(C3)O4)cn2cc1C(=O)Nc1cccc(C(F)(F)F)n1` (stereo not shown) [Example 44], the results for the IC50 in test [1] and in test [2] (setting [3]) were 3 nM and 0.0088 µM, respectively.
`COc1cc2nc(C3CCOCC3)cn2cc1C(=O)Nc1cccc2c1CCC2` [Example 121]: the half-inhibitory concentration (IC50) in test [1] is 3 nM; in test [2], 0.0092 µM.
On to `COc1cccc(NC(=O)c2cn3cc(C4CC(OC)C4)nc3cc2OC)n1` (stereo not shown) [Example 8], for which the IC50 was found to be 9 nM in test [1] and 0.0263 µM in test [2] (setting [3]).
As for `CCOc1cc2nc(C[C@H]3CCOC3)cn2cc1C(=O)Nc1cccc(C(F)F)n1` (single isomer, unassigned) [Example 64], the half-inhibitory concentration (IC50) is 1 nM in test [1] and 0.0017 µM in test [2].
Regarding `COc1cccc(NC(=O)c2cn3cc(C4CC5(CCOC5)C4)nc3cc2OC)n1` (stereo not shown) [Example 11], the IC50 in test [1] amounted to 2 nM; in test [2] (setting [3]), 0.0034 µM.
Consider `COc1cc2nc(C3CCOCC3)cn2cc1C(=O)Nc1cccc2c1OCCC2` [Example 162], for which the IC50 in test [1] is 1 nM; in test [2], 0.0016 µM.
As for `COc1cccc(NC(=O)c2cn3cc(C4CCOCC4)nc3cc2OC)n1` [Example 21], the results for the IC50 in test [1] and in test [2] were 3 nM and 0.0085 µM, respectively.
`COc1cc2nc(C3CCOCC3)cn2cc1C(=O)Nc1cccc2c1CCCC2` [Example 118]: the IC50 in test [1] was 4 nM; in test [2], 0.0174 µM.
Turning to `COc1cc2nc(C3CCOCC3)cn2cc1C(=O)Nc1ccccn1` [Example 146], the IC50 in test [1] was 9 nM; in test [2] it was 0.0311 µM.
